In brackets after ≈: the same amount, converted by molar mass.
Legend:
Assay type in all cases: functional
[1] = system: Mycobacterium tuberculosis; experiment: Antimycobacterial activity against quinolone-resistant, multidrug-resistant Mycobacterium tuberculosis
[2] = system: Mycobacterium tuberculosis; experiment: Antimycobacterial activity against RIF-resistant Mycobacterium tuberculosis
[3] = system: Mycobacterium tuberculosis; experiment: Antimycobacterial activity against INH-resistant Mycobacterium tuberculosis
[4] = system: Mycobacterium tuberculosis; experiment: Antimycobacterial activity against EMB-resistant Mycobacterium tuberculosis
[5] = system: Mycobacterium tuberculosis; experiment: Antimycobacterial activity against drug-resistant Mycobacterium tuberculosis

Structure (SMILES) | MIC [5] [µg/mL] | also measured
COc1c(N2CC3(CC3)[C@](C)(N)C2)c(F)cc2c(=O)c(C(=O)O)cn([C@@H]3C[C@@H]3F)c12 |  | MIC90 [1]: 0.5 µg/mL (≈ 1.19 µM)
CC(C)=CCC/C(C)=C/CNCCNC1C2CC3CC(C2)CC1C3 (stereo not drawn) [SQ109] |  | MIC [2]: 0.7 µM (≈ 0.231 µg/mL); MIC [3]: 1.4 µM (≈ 0.463 µg/mL); MIC [4]: 0.9 µM (≈ 0.298 µg/mL)
CC(=O)NC[C@H]1CN(c2ccc(N3CCSCC3)c(F)c2)C(=O)O1 [SUTEZOLID] | 0.03 (≈ 0.0849 µM) | 
O=[N+]([O-])c1cn2c(n1)OC[C@@H](OCc1ccc(OC(F)(F)F)cc1)C2 [PRETOMANID] | 0.015 (≈ 0.0418 µM) | 
COc1nc2ccc(Br)cc2cc1[C@@H](c1ccccc1)[C@@](O)(CCN(C)C)c1cccc2ccccc12 [BEDAQUILINE] | 0.003 (≈ 0.0054 µM) | 
C[C@]1(COc2ccc(N3CCC(Oc4ccc(OC(F)(F)F)cc4)CC3)cc2)Cn2cc([N+](=O)[O-])nc2O1 | 0.006 (≈ 0.0112 µM) | 
